The source of these data is patent US20140221369A1, “5-DEUTERO-2,4-THIAZOLIDINEDIONE AND 5-DEUTERO-2,4-OXAZOLIDINEDIONE DERIVATIVES AND COMPOSITIONS COMPRISING AND METHODS OF USING THE SAME” (DeuteRx, LLC, priority 2013, published 2014).

The nature of data set [1]: In vitro stability in human plasma at 37° C. (enantiomerization and D/H exchange, chiral LC/MS-MS, kinetic fit). The format is in vitro ADME. The conditions noted are these: for k, h+ → h− / k, h− → h+: enantiomerization rate constant, fit of the stability data of the protonated enantiomer. The procedure: The (+)-5-[(p-{[6-(4-amino-3,5-xylyloxy)-1-methyl-1,3-diaza-1H-inden-2-yl]methoxy}phenyl)methyl]-1,3-thiazolidine-2,4-dione, (−)-5-[(p-{[6-(4-amino-3,5-xylyloxy)-1-methyl-1,3-diaza-1H-inden-2-yl]methoxy}phenyl)methyl]-1,3-thiazolidine-2,4-dione, and rac-5-[(p-{[6-(4-amino-3,5-xylyloxy)-1-methyl-1,3-diaza-1H-inden-2-yl]methoxy}phenyl)methyl]-(5-^2H)-1,3-thiazolidine-2,4-dione were incubated in human plasma (K3EDTA as anticoagulant) at 37° C. in duplicates. […] It also contained ˜15% of the protonated enantiomers. Aliquots were removed at time=0, 5, 10, 15, 30 min, and 1, 2, 4, and 8 hours. Plasma proteins were precipitated by addition of acetonitrile containing cisapride as an internal standard (ISTD) and the supernatants were analyzed semi-quantitatively by LC/MS-MS with elution on a chiral column (Daicel ChiralPak IC-3) for the separation of enantiomers (isocratic method of 30:70 v/v 20 mM ammonium bicarbonate in water (pH=9.0) and acetonitrile). Peak areas for the deuterated enantiomers (+)-5-[(p-{[6-(4-amino-3,5-xylyloxy)-1-methyl-1,3-diaza-1H-inden-2-yl]methoxy}phenyl)methyl]-1,3-thiazolidine-2,4-dione and (−)-5-[(p-{[6-(4-amino-3,5-xylyloxy)-1-methyl-1,3-diaza-1H-inden-2-yl]methoxy}phenyl)methyl]-(5-^2H)-1,3-thiazolidine-2,4-dione were normalized to the ISTD and corrected for the isotopic peak of the corresponding protonated enantiomer, (+)-5-[(p-{[6-(4-amino-3,5-xylyloxy)-1-methyl-1,3-diaza-1H-inden-2-yl]methoxy}phenyl)methyl]-1,3-thiazolidine-2,4-dione and (−)-5-[(p-{[6-(4-amino-3,5-xylyloxy)-1-methyl-1,3-diaza-1H-inden-2-yl]methoxy}phenyl)methyl]-1,3-thiazolidine-2,4-dione, respectively, if present. Corrected data were analyzed and plotted using Microsoft Excel 2013 (Microsoft Corp, Redmond, Wash.) and the Excel Solver.
Scheme 1 illustrates possible reactions in a solution of a mixture of deuterated enantiomers when no degradation or side-reactions occur. The deuterium in both enantiomers, d+ and d−, can be lost by D/H exchange to give both protonated enantiomers, h+ and h− with rate constants kD++, kD+−, kD−+, kD−−, where D indicates D/H exchange, the first +/− represents the reagent, d+ or d−, and the second +/− stands for the product, h+ or h−. At the same time, the protonated enantiomers h+ and h− can exchange, with enantiomerization rate constants k+− and k−+.
Illustration of possible reactions and corresponding rate constants in a solution of rac-5-[(p-{[6-(4-amino-3,5-xylyloxy)-1-methyl-1,3-diaza-1H-inden-2-yl]methoxy}phenyl)methyl]-(5-^2H)-1,3-thiazolidine-2,4-dione where d+, d−, h+, h− stand for […] and (−)-5-[(p-{[6-(4-amino-3,5-xylyloxy)-1-methyl-1,3-diaza-1H-inden-2-yl]methoxy}phenyl)methyl]-(5-^2H)-1,3-thiazolidine-2,4-dione and (+)- and (−)-5-[(p-{[6-(4-amino-3,5-xylyloxy)-1-methyl-1,3-diaza-1H-inden-2-yl]methoxy}phenyl)methyl]-1,3-thiazolidine-2,4-dione, respectively.
Independent analyses of the data for h+ and h− were performed first and the average rate constants k+− and k−+ from these two fits were calculated and used as constants in the fitting of the stability data of the deuterated racemate. Calculated concentrations were obtained through numerical approximation of differential equations (1) and (2) for the stability studies of h+ and h− and equations (3) to (6) for the stability study of the enantiomeric mixture of deuterated d+ and d− by the Euler method (equation (7)). The step between calculated time points was minimized in order to minimize the local error (proportional to the square of the step size) and the global error (proportional to the step size). Data analysis was performed in Microsoft Excel 2013, using the Solver Generalized Reduced Gradient Nonlinear method with central derivatives to minimize the sum of sums of weighted Δ^2, square of difference between ISTD-normalized experimental data and calculated value, divided by the experimental data. […]

The target in data set [2] is T1, peroxisome proliferator-activated receptor gamma (PPARγ) (Homo sapiens, UniProt P37231).
T1 construct: label (kind not specified); Cerep (France), contract assay
T1 sequence (P37231 whole entry): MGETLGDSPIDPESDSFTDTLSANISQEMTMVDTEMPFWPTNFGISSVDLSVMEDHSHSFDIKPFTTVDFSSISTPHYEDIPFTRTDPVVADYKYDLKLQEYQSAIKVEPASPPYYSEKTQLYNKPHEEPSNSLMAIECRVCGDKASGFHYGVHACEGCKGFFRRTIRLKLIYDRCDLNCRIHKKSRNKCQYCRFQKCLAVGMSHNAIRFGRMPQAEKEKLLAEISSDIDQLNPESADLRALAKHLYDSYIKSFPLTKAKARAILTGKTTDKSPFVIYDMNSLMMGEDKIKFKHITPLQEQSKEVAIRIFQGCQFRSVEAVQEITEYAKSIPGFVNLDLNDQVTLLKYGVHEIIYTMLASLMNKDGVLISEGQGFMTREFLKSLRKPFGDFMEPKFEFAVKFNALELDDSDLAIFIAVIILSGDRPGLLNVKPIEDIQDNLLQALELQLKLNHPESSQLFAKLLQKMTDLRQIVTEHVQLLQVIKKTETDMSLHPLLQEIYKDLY
T1 sequence (Q15648 whole entry partner): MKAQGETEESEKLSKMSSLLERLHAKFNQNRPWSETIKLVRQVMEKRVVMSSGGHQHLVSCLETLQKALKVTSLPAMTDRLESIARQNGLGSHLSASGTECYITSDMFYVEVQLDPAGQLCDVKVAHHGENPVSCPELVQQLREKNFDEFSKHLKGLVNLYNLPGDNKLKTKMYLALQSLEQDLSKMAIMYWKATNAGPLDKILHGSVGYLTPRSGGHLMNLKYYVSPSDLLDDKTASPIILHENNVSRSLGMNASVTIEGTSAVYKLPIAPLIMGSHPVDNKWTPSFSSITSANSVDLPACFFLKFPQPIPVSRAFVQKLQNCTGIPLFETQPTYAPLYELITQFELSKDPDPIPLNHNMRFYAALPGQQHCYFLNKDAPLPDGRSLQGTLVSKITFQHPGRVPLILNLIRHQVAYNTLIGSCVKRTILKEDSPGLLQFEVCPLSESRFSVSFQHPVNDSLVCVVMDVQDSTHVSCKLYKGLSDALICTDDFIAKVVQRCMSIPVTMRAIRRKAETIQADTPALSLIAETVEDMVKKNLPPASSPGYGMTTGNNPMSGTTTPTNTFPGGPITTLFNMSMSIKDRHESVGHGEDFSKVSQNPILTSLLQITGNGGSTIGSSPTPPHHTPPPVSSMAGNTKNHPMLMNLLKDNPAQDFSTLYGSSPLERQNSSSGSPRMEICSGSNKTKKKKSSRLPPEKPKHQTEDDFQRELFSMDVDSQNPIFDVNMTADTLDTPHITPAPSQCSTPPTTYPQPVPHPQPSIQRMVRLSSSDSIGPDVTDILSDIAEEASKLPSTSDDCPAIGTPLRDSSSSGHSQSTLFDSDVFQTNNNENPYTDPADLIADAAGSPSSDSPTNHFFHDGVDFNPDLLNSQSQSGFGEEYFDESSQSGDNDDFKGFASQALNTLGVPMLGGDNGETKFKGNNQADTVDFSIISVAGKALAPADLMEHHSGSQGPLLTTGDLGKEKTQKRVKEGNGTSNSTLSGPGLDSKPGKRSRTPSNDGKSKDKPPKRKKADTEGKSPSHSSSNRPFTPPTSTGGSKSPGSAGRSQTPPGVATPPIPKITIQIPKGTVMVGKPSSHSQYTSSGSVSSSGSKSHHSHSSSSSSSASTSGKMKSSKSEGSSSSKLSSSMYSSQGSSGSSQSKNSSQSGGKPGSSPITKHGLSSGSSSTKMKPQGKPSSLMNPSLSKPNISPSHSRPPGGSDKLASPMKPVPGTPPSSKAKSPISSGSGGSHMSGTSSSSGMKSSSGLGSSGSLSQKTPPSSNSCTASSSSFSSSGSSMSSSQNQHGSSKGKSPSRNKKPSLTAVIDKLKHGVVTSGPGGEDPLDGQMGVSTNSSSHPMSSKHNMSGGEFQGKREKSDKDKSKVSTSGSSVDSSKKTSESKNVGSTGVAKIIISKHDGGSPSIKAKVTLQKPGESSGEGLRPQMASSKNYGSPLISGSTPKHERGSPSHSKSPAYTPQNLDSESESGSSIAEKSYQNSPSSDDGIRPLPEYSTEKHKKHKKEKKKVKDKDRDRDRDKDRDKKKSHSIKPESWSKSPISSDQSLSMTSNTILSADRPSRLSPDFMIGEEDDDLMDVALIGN
Briefly: TRAP220 PPARγ coactivator recruitment assay (Cerep). In kind it is biochemical. The conditions noted are these: for EC50: TRAP220 coactivator recruitment, percent of control (10 μM rosiglitazone), four-parameter fit, read-out: EC50, PPARγ agonist activity. The protocol:
The agonist activity of (+)- and (−)-5-[(p-{[6-(4-amino-3,5-xylyloxy)-1-methyl-1,3-diaza-1H-inden-2-yl]methoxy}phenyl)methyl]-(5-^2H)-1,3-thiazolidine-2,4-dione at the peroxisome proliferator-activated receptor gamma (PPARγ) was evaluated in the thyroid receptor-associated protein complex, 220 kDa component (TRAP220) PPARγ coactivator recruitement assay performed at Cerep (France). Briefly, a mixture of labeled PPARγ and TRAP220 coactivator was pre-incubated with a fluorescence acceptor at room temperature for 30 minutes in the presence of a fluorescence acceptor and the test compound. A fluorescence donor was then added and the mixture was incubated for 120 minutes at room temperature. The fluorescence signal was measured and results expressed as a percent of control (10 μM rosiglitazone). A dose response curve was generated for each enantiomer and the experimental data was analyzed using the log(agonist) vs. response−variable slope (four parameters) nonlinear model in GraphPad Prism 6.0 (GraphPad Software, Inc., La Jolla, Calif.).

Where [3] appears, read: D/H exchange rate constant, mixture of d− and d+ in human plasma at 37° C., fit to Equations 1 to 6.
[4] abbreviates: average of enantiomerization rate constants obtained by fitting data for h− and h+, human plasma at 37° C.

As a reminder, the EC50 is the concentration giving half of the maximal effect.

As to `[2H]C1(Cc2ccc(OCc3nc4ccc(Oc5cc(C)c(N)c(C)c5)cc4n3C)cc2)SC(=O)NC1=O` (racemic) [d−/d+, rac-5-[(p-{[6-(4-amino-3,5-xylyloxy)-1-methyl-1,3-diaza-1H-inden-2-yl]methoxy}phenyl)methyl]-(5-^2H)-1,3-thiazolidine-2,4-dione], in data set [1] (setting [3]), the “k, d+ → h+” value was determined as 0 h⁻¹; the “k, d+ → h−” value stood at 0.300 h⁻¹; the “k, d− → h+” value was determined as 0.211 h⁻¹; the “k, d− → h−” value was determined as 0.499 h⁻¹. Moreover, in data set [1] (setting [4]), the “k, h+ → h− (average used in analysis of the deuterated mixture)” value is 0.802 h⁻¹ and the “k, h− → h+ (average used in analysis of the deuterated mixture)” value is 0.668 h⁻¹.

In the case of `Cc1cc(Oc2ccc3nc(COc4ccc(CC5SC(=O)NC5=O)cc4)n(C)c3c2)cc(C)c1N` (single isomer, unassigned; (+)) [d+, (+)-5-[(p-{[6-(4-amino-3,5-xylyloxy)-1-methyl-1,3-diaza-1H-inden-2-yl]methoxy}phenyl)methyl]-(5-^2H)-1,3-thiazolidine-2,4-dione], the “potency relative to the (−) enantiomer d− (fold less potent)” value in data set [2] (ratio of EC50) stood at 7 fold.

As to `[2H]C1(Cc2ccc(OCc3nc4ccc(Oc5cc(C)c(N)c(C)c5)cc4n3C)cc2)SC(=O)NC1=O` (single isomer, unassigned; (+)) [d+, (+)-5-[(p-{[6-(4-amino-3,5-xylyloxy)-1-methyl-1,3-diaza-1H-inden-2-yl]methoxy}phenyl)methyl]-(5-^2H)-1,3-thiazolidine-2,4-dione], in data set [2], the EC50 stood at 48.7 nM. In addition, in data set [1] (human plasma at 37° C.), the “stability of d+ relative to h+” value is given as 2-3 fold.

Take `Cc1cc(Oc2ccc3nc(COc4ccc(CC5SC(=O)NC5=O)cc4)n(C)c3c2)cc(C)c1N` (single isomer, unassigned; (+)) [h+, (+)-5-[(p-{[6-(4-amino-3,5-xylyloxy)-1-methyl-1,3-diaza-1H-inden-2-yl]methoxy}phenyl)methyl]-1,3-thiazolidine-2,4-dione, reference compound]: in data set [1] (human plasma at 37° C.), the “k, h+ → h−” value was found to be 0.803 h⁻¹ and the “k, h− → h+” value came to 0.665 h⁻¹.

Consider `[2H]C1(Cc2ccc(OCc3nc4ccc(Oc5cc(C)c(N)c(C)c5)cc4n3C)cc2)SC(=O)NC1=O` (single isomer, unassigned; (-)) [d−, (−)-5-[(p-{[6-(4-amino-3,5-xylyloxy)-1-methyl-1,3-diaza-1H-inden-2-yl]methoxy}phenyl)methyl]-(5-^2H)-1,3-thiazolidine-2,4-dione], for which, in data set [2], the concentration giving a half-maximal response (EC50) came to 7.4 nM. In addition, the “stability of d− relative to h−” value in data set [1] (human plasma at 37° C.) is reported as “not more stable than h−”.

With `Cc1cc(Oc2ccc3nc(COc4ccc(CC5SC(=O)NC5=O)cc4)n(C)c3c2)cc(C)c1N` (single isomer, unassigned; (-)) [h−, (−)-5-[(p-{[6-(4-amino-3,5-xylyloxy)-1-methyl-1,3-diaza-1H-inden-2-yl]methoxy}phenyl)methyl]-1,3-thiazolidine-2,4-dione, reference compound], in data set [1] (human plasma at 37° C.), the “k, h+ → h−” value is 0.800 h⁻¹ and the “k, h− → h+” value is 0.671 h⁻¹.
